Three molecules from patent US4886785A, “Pyrimidine derivatives, pharmaceutical compositions and method of using same” (Hoffmann-La Roche Inc., priority 1986, dated 1989) can be followed below.

Usually IC50 stands for the midpoint of a concentration-inhibition curve. High values mean lower potency, low ones higher potency.

The assay deals with herpes simplex virus type 2 (HSV-2) thymidine kinase (Human herpesvirus 2, UniProt P89446). Nature of the assay: Inhibition of herpes simplex virus type 2 (HSV-2) thymidine kinase in vitro (3H-thymidine phosphorylation). To be noted: thymidine kinase extract, 0.3 μM 3H-thymidine, 5 mM ATP, pH 8, 37° C., 30 minutes. Type of assay: biochemical. As to the method: In this test, the assay mixture contains 50 mM Tris-HCl, pH 8, 5 mM magnesium chloride, 5 mM ATP, 0.3 μM ^3 H-thymidine (50 Ci/mmol), suitably diluted thymidine kinase extract and various concentrations of compounds of formula I or tautomers in a total volume of 100 μl. Assays are incubated at 37° C. for 30 minutes and the reaction is terminated by immersion in a boiling water bath for 2 minutes. 85 μl aliquots from each assay are then dried on cellulose paper discs and the unphosphorylated ^3 H-thymidine is removed by washing in 4 mM ammonium formate. The radioactivity remaining bound to the discs is then measured by scintillation spectrophotometry. The degree of inhibition at each concentration of compound of formula I is expressed as a percentage of the control reaction (100%) after substracting a measured blank value which represents the amount of radioactivity bound to the disc from a reaction containing heat inactivated enzymes. The IC50 value, namely the concentration of compound of formula I or tautomer thereof which inhibits enzyme activity by 50%, is then calculated. The results obtained with representative compounds of formula I are compiled in the following Table: […]
Sequence of herpes simplex virus type 2 (HSV-2) thymidine kinase (P89446 whole entry): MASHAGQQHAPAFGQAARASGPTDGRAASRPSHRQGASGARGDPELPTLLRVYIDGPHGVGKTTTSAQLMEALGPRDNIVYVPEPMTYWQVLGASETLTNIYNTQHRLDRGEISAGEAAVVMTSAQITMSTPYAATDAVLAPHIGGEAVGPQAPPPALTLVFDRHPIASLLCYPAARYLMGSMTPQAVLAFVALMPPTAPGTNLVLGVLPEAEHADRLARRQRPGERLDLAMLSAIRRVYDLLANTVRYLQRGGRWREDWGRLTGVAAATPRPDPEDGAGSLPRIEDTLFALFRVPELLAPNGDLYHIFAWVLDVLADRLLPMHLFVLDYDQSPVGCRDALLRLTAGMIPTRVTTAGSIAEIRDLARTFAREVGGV
Regarding `CCc1cn([C@H]2C[C@H](O)[C@@H](CNCc3cccc(Cl)c3Cl)O2)c(=O)[nH]c1=O` [Example 4b, 5'-(2,3-dichlorobenzylamino)-2',5'-dideoxy-5-ethyluridine], the midpoint of inhibition, the IC50, lay at 60 nM.

Molecule `CCc1cn([C@H]2C[C@H](O)[C@@H](CNCc3c(Cl)cccc3Cl)O2)c(=O)[nH]c1=O` [Example 4c, 5'-(2,6-dichlorobenzylamino)-2',5'-dideoxy-5-ethyluridine] gave a half-inhibitory concentration (IC50) of 80 nM. Turning to `CCc1cn([C@H]2C[C@H](O)[C@@H](CNCCc3c(Cl)cccc3Cl)O2)c(=O)[nH]c1=O` [Example 3b, 5'-[2-(2,6-dichlorophenyl)ethylamino]-2',5'-dideoxy-5-ethyluridine], the midpoint of inhibition, the IC50, lay at 90 nM.
